Our source for the T/C values is PubChem BioAssay AID220 (DTP/NCI, 2004).

The experiment relates to CD8F1 mice, subcutaneous mammary adenocarcinoma, T/C%. The experiment is described as follows: NCI In Vivo Anticancer Drug Screen. Data for tumor model Mammary Adenocarcinoma CD8F1 (subcutaneous) in CD8F1. The conditions noted are these: higher = larger tumour. The method in brief:
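Antitumor activity is assessed in transplantable-tumor mice by comparing the treated group with a vehicle-treated control group. Survival or tumor size serves as the measure, reported as T divided by C.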

[1] abbreviates: endpoint: median tumor weight (est.), dose: 25.0 mg/kg/injection, schedule: Q07DX005 (ip), vehicle: saline.
The mark [2] stands for this setting: endpoint: median tumor weight (est.), dose: 50.0 mg/kg/injection, schedule: Q07DX005 (ip), vehicle: saline.
Where [3] appears, read: endpoint: median tumor weight (est.), dose: 100.0 mg/kg/injection, schedule: Q07DX005 (ip), vehicle: suspension in saline.

Several values for one entry are separate records, joined by “and”; a condition that tells them apart may be missing. Equal entries are not always repeated. Inconclusive results are not listed.

Take `N=c1ccn2c(n1)OC1C(O)C(CO)OC12` (stereo not drawn): the T/C under setting [1] was 80 % of control; the T/C under setting [2] is 159 % of control; the T/C (endpoint: median tumor weight (est.), dose: 100.0 mg/kg/injection, schedule: Q07DX005 (ip), vehicle: saline) is 111 % of control; the T/C under setting [3] was 81 % of control; the T/C (endpoint: median tumor weight (est.), dose: 200.0 mg/kg/injection, schedule: Q07DX005 (ip), vehicle: saline) is 53 % of control; the T/C (endpoint: median tumor weight (est.), dose: 200.0 mg/kg/injection, schedule: Q07DX005 (ip), vehicle: suspension in saline) was 109 % of control. Besides, the T/C is, setting by setting: (endpoint: median tumor weight (est.), dose: 400.0 mg/kg/injection, schedule: Q07DX005 (ip), vehicle: saline) 22 % of control; (endpoint: median tumor weight (est.), dose: 400.0 mg/kg/injection, schedule: Q07DX005 (ip), vehicle: suspension in saline) 70 % of control; (endpoint: median tumor weight (est.), dose: 600.0 mg/kg/injection, schedule: Q07DX005 (ip), vehicle: saline) 21 % of control; (endpoint: median tumor weight (est.), dose: 800.0 mg/kg/injection, schedule: Q07DX005 (ip), vehicle: suspension in saline) 52 % of control; (endpoint: median tumor weight (est.), dose: 1600.0 mg/kg/injection, schedule: Q07DX005 (ip), vehicle: suspension in saline) 35 % of control.
With `O=C1C=CC(=O)N1c1ccc(Cl)cc1`, the T/C runs as follows: (endpoint: median tumor weight (est.), dose: 5.0 mg/kg/injection, schedule: Q07DX003 (ip), vehicle: Klucel (hydroxypropylcellulose) (HPC)) 65 % of control; (endpoint: median tumor weight (est.), dose: 20.0 mg/kg/injection, schedule: Q07DX003 (ip), vehicle: Klucel (hydroxypropylcellulose) (HPC)) 109 % of control.
As to `C[PH+](C)C.C[PH+](C)C.[Au]`, the T/C reads like this: (endpoint: median tumor weight change, dose: 1.5 mg/kg/injection, schedule: Q01DX001 (ip), vehicle: saline) 112 % of control; (endpoint: median tumor weight change, dose: 3.0 mg/kg/injection, schedule: Q01DX001 (ip), vehicle: saline) 77 % of control; (endpoint: median tumor weight change, dose: 3.12 mg/kg/injection, schedule: Q01DX001 (ip), vehicle: saline) 95 % of control; (endpoint: median tumor weight change, dose: 12.5 mg/kg/injection, schedule: Q01DX001 (ip), vehicle: saline) 60 % of control and 80 % of control.
`C=CC(C)NC(=S)NNC(=S)NC` (stereo not drawn): the T/C is, setting by setting: (endpoint: median tumor weight change, dose: 62.5 mg/kg/injection, schedule: Q01DX001 (ip), vehicle: saline + alcohol) 155 % of control; (endpoint: median tumor weight change, dose: 125.0 mg/kg/injection, schedule: Q01DX001 (ip), vehicle: saline + alcohol) 164 % of control; (endpoint: median tumor weight change, dose: 250.0 mg/kg/injection, schedule: Q01DX001 (ip), vehicle: saline + alcohol) 119 % of control; (endpoint: median tumor weight change, dose: 500.0 mg/kg/injection, schedule: Q01DX001 (ip), vehicle: saline + alcohol) 82 % of control.
Turning to `Cc1cccc(-[n+]2noc(N)n2)c1`, the T/C was 80 % of control (endpoint: median tumor weight change, dose: 62.0 mg/kg/injection, schedule: Q01DX001 (ip), vehicle: water) and 51 % of control (endpoint: median tumor weight change, dose: 125.0 mg/kg/injection, schedule: Q01DX001 (ip), vehicle: water).
For the compound `O=C1OC(=O)[C@H]2[C@@H]1[C@H]1C=C[C@@H]2OC1=O`, the T/C reads like this: (endpoint: median tumor weight change, dose: 125.0 mg/kg/injection, schedule: Q01DX001 (ip), vehicle: saline) 154 % of control; (endpoint: median tumor weight change, dose: 250.0 mg/kg/injection, schedule: Q01DX001 (ip), vehicle: saline) 98 % of control; (endpoint: median tumor weight change, dose: 500.0 mg/kg/injection, schedule: Q01DX001 (ip), vehicle: saline) 91 % of control; (endpoint: median tumor weight change, dose: 1000.0 mg/kg/injection, schedule: Q01DX001 (ip), vehicle: saline) 95 % of control; (endpoint: median tumor weight change, dose: 2000.0 mg/kg/injection, schedule: Q01DX001 (ip), vehicle: saline) 40 % of control.
With `CN(C)P(=O)(Oc1ccccc1)N(C)C`, the T/C is, setting by setting: (endpoint: median tumor weight change, dose: 62.5 mg/kg/injection, schedule: Q01DX001 (ip), vehicle: saline with Tween-80) 86 % of control; (endpoint: median tumor weight change, dose: 125.0 mg/kg/injection, schedule: Q01DX001 (ip), vehicle: saline with Tween-80) 63 % of control; (endpoint: median tumor weight change, dose: 500.0 mg/kg/injection, schedule: Q01DX001 (ip), vehicle: saline with Tween-80) 94 % of control.
With `CN1C(=O)CC2(CCN(CCCC(=O)c3ccc(F)cc3)CC2)C1=O`, the T/C is, setting by setting: (endpoint: median tumor weight (est.), dose: 6.25 mg/kg/injection, schedule: Q07DX005 (ip), vehicle: saline) 112 % of control; (endpoint: median tumor weight (est.), dose: 6.25 mg/kg/injection, schedule: Q07DX005 (ip), vehicle: suspension in saline) 52 % of control; (endpoint: median tumor weight (est.), dose: 12.5 mg/kg/injection, schedule: Q07DX005 (ip), vehicle: saline) 62 % of control; (endpoint: median tumor weight (est.), dose: 12.5 mg/kg/injection, schedule: Q07DX005 (ip), vehicle: suspension in saline) 108 % of control; under setting [1], 170 % of control; under setting [2], 117 % of control. Moreover, the T/C is 258 % of control (endpoint: median tumor weight (est.), dose: 50.0 mg/kg/injection, schedule: Q07DX005 (ip), vehicle: suspension in saline) and 122 % of control under setting [3].
For the compound `COc1cccc2c1C(=O)c1c(O)c3c(c(O)c1C2=O)C[C@@](O)(/C(CO)=N/NC(=O)c1ccc(Cl)c(Cl)c1)C[C@@H]3OC1CC(N)C(O)C(C)O1` (stereo partly drawn), the T/C is, setting by setting: (endpoint: mean tumor weight, dose: 0.75 mg/kg/injection, schedule: Q07DX005 (ip), vehicle: saline) 106 % of control; (endpoint: mean tumor weight, dose: 1.5 mg/kg/injection, schedule: Q07DX005 (ip), vehicle: saline) 161 % of control; (endpoint: mean tumor weight, dose: 1.5 mg/kg/injection, schedule: Q07DX006 (ip), vehicle: saline) 118 % of control; (endpoint: mean tumor weight, dose: 3.0 mg/kg/injection, schedule: Q07DX005 (ip), vehicle: saline) 75 % of control; (endpoint: mean tumor weight, dose: 3.0 mg/kg/injection, schedule: Q07DX006 (ip), vehicle: saline) 71 % of control; (endpoint: mean tumor weight, dose: 4.0 mg/kg/injection, schedule: Q07DX004 (ip), vehicle: saline) 86 % of control. Moreover, the T/C was 96 % of control (endpoint: mean tumor weight, dose: 8.0 mg/kg/injection, schedule: Q07DX004 (ip), vehicle: saline); 30 % of control (endpoint: mean tumor weight, dose: 12.0 mg/kg/injection, schedule: Q07DX005 (ip), vehicle: saline); 32 % of control (endpoint: mean tumor weight, dose: 12.0 mg/kg/injection, schedule: Q07DX006 (ip), vehicle: saline); 17 % of control (endpoint: mean tumor weight, dose: 16.0 mg/kg/injection, schedule: Q07DX004 (ip), vehicle: saline); 60 % of control (endpoint: median tumor weight (est.), dose: 2.0 mg/kg/injection, schedule: Q07DX005 (ip), vehicle: suspension in saline); 150 % of control (endpoint: median tumor weight (est.), dose: 4.0 mg/kg/injection, schedule: Q07DX005 (ip), vehicle: suspension in saline). The T/C (endpoint: median tumor weight (est.), dose: 8.0 mg/kg/injection, schedule: Q07DX005 (ip), vehicle: suspension in saline) is 41 % of control and the T/C (endpoint: median tumor weight (est.), dose: 16.0 mg/kg/injection, schedule: Q07DX005 (ip), vehicle: suspension in saline) was 25 % of control.
